What was measured:
Format in all cases: in vivo
[1] = tested on: Diamond Back Moth (Plutella xylostella); experiment: Diamond back moth leaf dip test; conditions: foliar, 120 h
Method: The active compound is dissolved at the desired concentration in a mixture of 1:1 (vol:vol) distilled water:acteon. The test solution is prepared at the day of use and in general at concentrations of […].
Leaves of Chinese cabbage were dipped in test solution and air-dried. Treated leaves were placed in petri dished lined with moist filter paper. Mortality was recorded 24, 72, and 120 hours after treatment.

[2] = tested on: Mediterranean Fruitfly (Ceratitis capitata); experiment: Mediterranean fruitfly microtiter plate diet test; conditions: 120 h
Method: For evaluating control of Mediterranean fruitfly (Ceratitis capitata) the test unit consisted of microtiter plates containing an insect diet and 50-80 C. capitata eggs. The compounds were formulated using a solution containing 75% v/v water and 25% v/v DMSO. Different concentrations of formulated compounds were sprayed onto the insect diet at 5 μl, using a custom built micro atomizer, at two replications.
After application, microtiter plates were incubated at about 28±1° C. and about 80±5% relative humidity for 5 days. Egg and larval mortality was then visually assessed.

[3] = tested on: Orchid Thrips (Dichromothrips corbetti); experiment: Orchid thrips floral-immersion test; conditions: 96 h
Method: Dichromothrips corbetti adults used for bioassay are obtained from a colony maintained continuously under laboratory conditions. For testing purposes, the test compound is diluted to a concentration of 300 ppm (wt compound: vol diluent) in a 1:1 mixture of acetone:water (vol:vol), plus 0.01% vol/vol Kinetic® surfactant.
Thrips potency of each compound is evaluated by using a floral-immersion technique. Plastic petri dishes are used as test arenas. All petals of individual, intact orchid flowers are dipped into treatment solution and allowed to dry. Treated flowers are placed into individual petri dishes along with 10-15 adult thrips. The petri dishes are then covered with lids. All test arenas are held under continuous light and a temperature of about 28° C. for duration of the assay. After 4 days, the numbers of live thrips are counted on each flower, and along inner walls of each petri dish. The level of thrips mortality is extrapolated from pre-treatment thrips numbers.

[4] = tested on: Silverleaf Whitefly (Bemisia argentifolii); experiment: Silverleaf whitefly cotton plant spray test; conditions: 72 h, 3 days after treatment, in comparison with untreated controls
From the text: (§1) The active compounds were formulated in cyclohexanone as a 10,000 ppm solution supplied in tubes. The tubes were inserted into an automated electrostatic sprayer equipped with an atomizing nozzle and they served as stock solutions for which lower dilutions were made in 50% acetone:50% water (v/v). A nonionic surfactant (Kinetic®) was included in the solution at a volume of 0.01% (v/v).
Cotton plants at the cotyledon stage (one plant per pot) were sprayed by an automated electrostatic plant sprayer equipped with an atomizing spray nozzle. The plants were dried in the sprayer fume hood and then removed from the sprayer. Each pot was placed into a plastic cup and about 10 to 12 whitefly adults (approximately 3-5 days old) were introduced. The insects were collected using an aspirator and a nontoxic Tygon® tubing connected to a barrier pipette tip. The tip, containing the collected insects, was then gently inserted into the soil containing the treated plant, allowing insects to crawl out of the tip to reach the foliage for feeding. Cups were covered with a reusable screened lid. Test plants were maintained in a growth room at about 25° C. and about 20-40% relative humidity for 3 days, avoiding direct exposure to fluorescent light (24 hour photoperiod) to prevent trapping of heat inside the cup. Mortality was assessed 3 days after treatment, compared to untreated control plants.

[5] = tested on: Southern Armyworm (Spodoptera eridania); experiment: Southern armyworm lima bean foliar spray test; conditions: 96 h
Method: as §1
(§2) Lima bean plants (variety Sieva) were grown 2 plants to a pot and selected for treatment at the 1st true leaf stage. Test solutions were sprayed onto the foliage by an automated electrostatic plant sprayer equipped with an atomizing spray nozzle. The plants were dried in the sprayer fume hood and then removed from the sprayer. Each pot was placed into perforated plastic bags with a zip closure. About 10 to 11 armyworm larvae were placed into the bag and the bags zipped closed. Test plants were maintained in a growth room at about 25° C. and about 20-40% relative humidity for 4 days, avoiding direct exposure to fluorescent light (24 hour photoperiod) to prevent trapping of heat inside the bags. Mortality and reduced feeding were assessed 4 days after treatment, compared to untreated control plants.

[6] = tested on: Tobacco Budworm (Heliothis virescens); experiment: Tobacco budworm cotton plant foliar spray test; conditions: 96 h
Method: as §1
as §2, with “Cotton” for “Lima bean”, “plants” for “plants (variety Sieva)”, “cotyledon” for “1st true leaf”, “budworm” for “armyworm”

[7] = tested on: Boll Weevil (Anthonomus grandis); experiment: Boll weevil microtiter plate diet test; conditions: 120 h
Method: For evaluating control of boll weevil (Anthonomus grandis) the test unit consisted of 24-well-microtiter plates containing an insect diet and 20-30 A. grandis eggs.
The compounds were formulated using a solution containing 75% v/v water and 25% v/v DMSO. Different concentrations of formulated compounds were sprayed onto the insect diet at 20 μl, using a custom built micro atomizer, at two replications. After application, microtiter plates were incubated at about 23±1° C. and about 50±5% relative humidity for 5 days. Egg and larval mortality was then visually assessed.

[8] = tested on: House Fly Adults (Musca domestica); experiment: House fly adults glass vial contact assay; conditions: 48 h after treatment, in comparison with untreated controls
Method: If not otherwise specified, the tests were conducted as glass vial contact assays. Glass vials (20 ml scintillation vials) were used. Treatment solutions were mixed with technical grade chemicals diluted in acetone. Treatment solutions needed for the assays included generally 1 and 10 ppm (0.01 and 0.1 μg/cm^2, respectively), but optionally also 100 and/or 1000 ppm for first tier vials. As commercial standard, alphacypermethrin, was run at 1 ppm. As solvent control, acetone was used for the assay. Treatment solution was pipetted into the bottom of each vial. Each vial was turned on its side and placed onto a commercial grade hot dog roller without applying heat. The uncapped vials were allowed to roll to allow for the acetone treatment to vent off. After drying, the vials were placed into the compartmented vial shipping boxes. The workstation was prepared by chilling the table and plastic Petri dishes with the inside wall coated with Fluon. A weigh boat of 10% sugar water saturated cotton dental pellets was also prepared. The animal pests were collected into a tube with a rechargeable insect vacuum. The tube of animal pests was placed in a laboratory refrigerator until the animal pests were incapacitated. The animal pests were emptied into chilled Petri dish. A small cotton dental pellet was soaked in water or in 10 wt % sugar water, whereas the excess solution was gently squeezed out. […]

[9] = tested on: yellowfever mosquito larvae (Aedes aegypti); experiment: Larval mosquito water treatment assay; conditions: 120 h, 5 DAT (days after treatment), first tier test, in comparison with untreated controls
Method: The assay was conducted in 6-well polystyrene plates using one plate per treatment rate. Stock solutions were prepared at 100 and 1000 ppm. Screen rates were at 1 and 10 ppm. Distilled water was added to each well, control wells were treated with acetone. Temephos (Abate technical) was used as the standard at 0.1 ppm. Ten late thirdinstar yellowfever mosquito larvae (Aedes aegypti) in water were added to each well. One drop of liver powder solution (6 g in 100 ml distilled water) was added to each well as a food source daily. Plates were maintained at 22-25° C. and 25-50% RH (relative humidity) and observed daily for dead larvae and pupae at 1, 2, 3, and 5 days after treatment. Dead larvae and all pupae were removed daily. Mortality was defined as an insect incapable of coordinated movement when agitated.

CON=C(c1ccc(C2=NOC(c3cc(Cl)cc(Cl)c3)(C(F)(F)F)C2)cc1C)N(C)C (stereo not drawn) [Compound 1-3, 4-[5-(3,5-Dichloro-phenyl)-5-trifluoromethyl-4,5-dihydro-isoxazol-3-yl]-N′-methoxy-2,N,N-trimethyl-benzamidine]
≥ 75%: mortality at 300 ppm [1] | mortality at 2500 ppm [2] | mortality at 300 ppm [3] | mortality at 300 ppm [4] | mortality at 300 ppm [5] | mortality at 2500 ppm [6] | mortality at 2500 ppm [7] | mortality at 10 ppm [8] | mortality at 1 ppm [9]

Reference: patent US8633134B2, “Substituted amidine compounds for combating animal pests” (priority 2008, dated 2014)
